Measurements: EP1090634A1, “Agents for reducing cholesterol and lipid uptake” (Hauser, Helmut, priority 1999, dated 2001)

System: micellar dispersion consisting of 5 mM taurocholate, 0.6 mM oleic acid and 0.1 mM radiolabeled cholesterol
Assay: In vitro precipitation of cholesterol-carrying bile salt micelles (radioactivity in supernatant after centrifugation; turbidity at 500 nm)
Details: for precipitation: at the amount calculated for charge equivalence
Procedure: In order to determine the efficiency of specific cations, an in vitro test was used in which micelles comprising radio labeled cholesterol (cholesterol and micelles were produced according to known methods, see below) were generated. To a predetermined amount of such micelles, the respective precipitant was added in portions, and the precipitation formed upon addition of specific amounts of precipitant measured by two methods, namely by light scattering and by determination of the radioactivity in the supernatant after centrifugation.
A micellar dispersion consisting of 5 mM taurocholate, 0.6 mM oleic acid and 0.1 mM radiolabeled cholesterol was prepared as described before (Schulthess et al., J. Lipid Res. 37, 2405-19 (1996)) using Mg- and Ca-free phosphate-buffered saline (PBS) from Life Technologies, Basel, Switzerland. This stock solution was diluted by adding various amounts of precipitant in PBS, and PBS was added to a final volume of 1 ml. The mixture was shortly vortexed and incubated at room temperature for about 5 min before measuring its optical density (turbidity) at 500 nm. Precipitation (in %) was determined as follows: an aliquot of 200 µl of the incubation mixture was centrifuged for 3 min. at 100'000 g and the radioactivity of 100 µl supernatant was determined in a liquid scintillation counter. The radioactivity of 100 µl of the original mixture was also determined without centrifugation. The precipitation was determined as precipitation (%) = 100 [1-([…])] [formula] • A = radioactivity in supernatant without centrifugation • B = radioactivity in supernatant after centrifugation As a control: the precipitation (%) is determined in the absence of precipitant and a value of precipitation (%) = 2 ± 1 is obtained.

[1] = charge ratio (taurocholate/precipitant) 0.3, in 10 mM Arg and 10 mM Lys
[2] = charge ratio (taurocholate/precipitant) 0.3 ± 0.1, PBS
[3] = charge ratio (taurocholate/precipitant) 0.6, in 10 mM Arg and 10 mM Lys
[4] = charge ratio (taurocholate/precipitant) 1.2 ± 0.5, PBS
[5] = charge ratio (taurocholate/precipitant) 0.25, PBS
[6] = charge ratio (taurocholate/precipitant) 1, PBS
[7] = charge ratio (taurocholate/precipitant) 0.2, in PBS
[8] = charge ratio (taurocholate/precipitant) 5, in PBS
[9] = charge ratio (taurocholate/precipitant) 1.4 ± 0.6, PBS
[10] = charge ratio (taurocholate/precipitant) 0.5, PBS
[11] = charge ratio (taurocholate/precipitant) 3, PBS
[12] = charge ratio (taurocholate/precipitant) 0.1, PBS
[13] = charge ratio (taurocholate/precipitant) 0.165, PBS
[14] = charge ratio (taurocholate/precipitant) 1, in 50 mM Tris-HCl, pH=7.4
[15] = charge ratio (taurocholate/precipitant) 2, in 50 mM Tris-HCl, pH=7.4
[16] = charge ratio (taurocholate/precipitant) 2, PBS

Polylysine [Polylysine Mr = 21600]
precipitation (Figure 2, equivalence point: poly K = 0.0061 mM): 100%
Precipitation (%) [1]: 100%
Turbidity (OD 500 nm) [1]: 1.6 ± 0.2 OD 500 nm
Precipitation (%) [2]: 100%
Turbidity (OD 500 nm) [2]: 0.4 ± 0.03 OD 500 nm
Precipitation (%) [3]: 100%
Turbidity (OD 500 nm) [3]: 1.3 ± 0.1 OD 500 nm
Precipitation (%) [4]: 100%
Turbidity (OD 500 nm) [4]: 0.13 ± 0.05 OD 500 nm

N=C(N)NCCC[C@H](N)C(=O)O [Arginine]
Precipitation (%) [5]: 0%
Turbidity (OD 500 nm) [5]: 0 OD 500 nm
Precipitation (%) [6]: 0%
Turbidity (OD 500 nm) [6]: 0 OD 500 nm

Mg^2+
Precipitation (%) [7]: 0%
Turbidity (OD 500 nm) [7]: 0 OD 500 nm
Precipitation (%) [8]: 0%
Turbidity (OD 500 nm) [8]: 0 OD 500 nm

Polylysine [Polylysine Mr = 2300]
precipitation (Figure 3, equivalence point: poly K = 0.056 mM): 100%
Precipitation (%) (charge ratio (taurocholate/precipitant) 0.5 ± 0.1, PBS): 100%
Turbidity (OD 500 nm) (charge ratio (taurocholate/precipitant) 0.5 ± 0.1, PBS, maximal turbidity observed): 0.9 ± 0.1 (max) OD 500 nm
Precipitation (%) [9]: 100%
Turbidity (OD 500 nm) [9]: 0.6 ± 0.2 OD 500 nm

NCCCCCCCCCCN [1,10 Diaminodecane]
Precipitation (%) [10]: 0%
Turbidity (OD 500 nm) [10]: 0 OD 500 nm
Precipitation (%) [6]: 0%
Turbidity (OD 500 nm) [6]: 0 OD 500 nm
Precipitation (%) [11]: 0%
Turbidity (OD 500 nm) [11]: 0 OD 500 nm

NCCCCCCN [1,6 Hexanediamine]
Precipitation (%) [12]: 0%
Turbidity (OD 500 nm) [12]: 0 OD 500 nm
Precipitation (%) [13]: 0%
Turbidity (OD 500 nm) [13]: 0 OD 500 nm

Ca^2+
Precipitation (%) (charge ratio (taurocholate/precipitant) 0.2, in 50 mM Tris-HCl, pH=7.4): 0%
Turbidity (OD 500 nm) (charge ratio (taurocholate/precipitant) 0.2, in 50 mM Tris-HCl, pH=7.4, maximal turbidity observed): 0.23 ± 0.06 (max) OD 500 nm
Precipitation (%) [7]: 100%
Turbidity (OD 500 nm) (charge ratio (taurocholate/precipitant) 0.2, in PBS, maximal turbidity observed): 0.25 ± 0.05 (max) OD 500 nm
Precipitation (%) [14]: 0%
Turbidity (OD 500 nm) [14]: 0.12 ± 0.03 OD 500 nm
Precipitation (%) [15]: 0%
Turbidity (OD 500 nm) [15]: 0.13 ± 0.03 OD 500 nm

NCCCC[C@H](N)C(=O)O [Lysine]
Precipitation (%) [5]: 0%
Turbidity (OD 500 nm) [5]: 0 OD 500 nm
Precipitation (%) [6]: 0%
Turbidity (OD 500 nm) [6]: 0 OD 500 nm

NCCCCCCCCCCCCN [1,12 Diaminododecane]
Precipitation (%) (charge ratio (taurocholate/precipitant) 0.125, PBS): 100%
Turbidity (OD 500 nm) (charge ratio (taurocholate/precipitant) 0.125, PBS, maximal turbidity observed): 0.4 ± 0.05 (max) OD 500 nm
Precipitation (%) [10]: 65 ± 5%
Turbidity (OD 500 nm) [10]: 0.02 ± 0.01 OD 500 nm
Precipitation (%) [6]: 17 ± 4%
Turbidity (OD 500 nm) [6]: 0.01 ± 0.005 OD 500 nm
Precipitation (%) [16]: 13 ± 4%
Turbidity (OD 500 nm) [16]: 0.01 ± 0.005 OD 500 nm
